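Interpolation was linear, between the two tested concentrations surrounding the appropriate level; five concentrations were tested over 48 hours in 96-well plates. At the GI50, growth is halved.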 Active and inactive are the calls of the source. No stated cut-off is given here; in the data, active = GI50 up to about 1.1 µM and inactive = higher.
Experiments:
Assay in all cases: NCI anticancer screen, dose series, 48 h
DU-145 = tested on: DU-145
NCI-H226 = tested on: NCI-H226
BT-549 = tested on: BT-549
MCF7 = tested on: MCF7
U-251 = tested on: U-251
HCT-116 = tested on: HCT-116
SN12C = tested on: SN12C
HCT-15 = tested on: HCT-15
ACHN = tested on: ACHN
SW-620 = tested on: SW-620
NCI-H522 = tested on: NCI-H522
NCI-H23 = tested on: NCI-H23
COLO 205 = tested on: COLO 205
HL-60 = tested on: HL-60
HOP-92 = tested on: HOP-92
NCI-H460 = tested on: NCI-H460
M14 = tested on: M14
UACC-257 = tested on: UACC-257
EKVX = tested on: EKVX
A498 = tested on: A498
LOX IMVI = tested on: LOX IMVI
HCC 2998 = tested on: HCC 2998
HOP-62 = tested on: HOP-62
MDA-N = tested on: MDA-N
HT-29 = tested on: HT-29
KM12 = tested on: KM12
IGROV-1 = tested on: IGROV-1
OVCAR-3 = tested on: OVCAR-3
A549 = tested on: A549
SF-268 = tested on: SF-268
CAKI-1 = tested on: CAKI-1
TK-10 = tested on: TK-10
SK-MEL-5 = tested on: SK-MEL-5
UO-31 = tested on: UO-31
MOLT-4 = tested on: MOLT-4
RPMI-8226 = tested on: RPMI-8226
OVCAR-8 = tested on: OVCAR-8
786-0 = tested on: 786-0
UACC-62 = tested on: UACC-62
OVCAR-4 = tested on: OVCAR-4
K562 = tested on: K562
SF-539 = tested on: SF-539
OVCAR-5 = tested on: OVCAR-5
Hs-578T = tested on: Hs-578T
SNB-75 = tested on: SNB-75
MDA-MB-435 = tested on: MDA-MB-435
T47D = tested on: T47D
PC-3 = tested on: PC-3
RXF 393 = tested on: RXF 393
CCRF-CEM = tested on: CCRF-CEM
NCI/ADR-RES = tested on: NCI/ADR-RES
SK-MEL-28 = tested on: SK-MEL-28
SF-295 = tested on: SF-295
Malme-3M = tested on: Malme-3M
SNB-19 = tested on: SNB-19

SMILES: CC1(C)CC2C(=O)c3ccccc3NC2c2ccccc21 (stereo not given)
- GI50 (DU-145): 3.6 µM (inactive)
- GI50 (NCI-H226): 11.9 µM (inactive)
- GI50 (BT-549): 10.8 µM (inactive)
- GI50 (MCF7): 4.33 µM (inactive)
- GI50 (U-251): 5.47 µM (inactive)
- GI50 (HCT-116): 2.99 µM (inactive)
- GI50 (SN12C): 5.79 µM (inactive)
- GI50 (HCT-15): 3.6 µM
- GI50 (ACHN): 14.4 µM (inactive)
- GI50 (SW-620): 3.9 µM (inactive)
- GI50 (NCI-H522): 1.53 µM (inactive)
- GI50 (NCI-H23): 4.98 µM (inactive)
- GI50 (COLO 205): 3.44 µM (inactive)
- GI50 (HL-60): 2.11 µM (inactive)
- GI50 (HOP-92): > 24.6 µM (inactive)
- GI50 (NCI-H460): 3.12 µM (inactive)
- GI50 (M14): 5.28 µM (inactive)
- GI50 (UACC-257): 40.4 µM (inactive)
- GI50 (EKVX): 43.2 µM (inactive)
- GI50 (A498): 6.21 µM (inactive)
- GI50 (LOX IMVI): 4.76 µM (inactive)
- GI50 (HCC 2998): 5.86 µM (inactive)
- GI50 (HOP-62): 3.75 µM (inactive)
- GI50 (MDA-N): 320 nM (active)
- GI50 (HT-29): 3.48 µM (inactive)
- GI50 (KM12): 4.3 µM (inactive)
- GI50 (IGROV-1): 7.13 µM (inactive)
- GI50 (OVCAR-3): 4.29 µM (inactive)
- GI50 (A549): 6.11 µM (inactive)
- GI50 (SF-268): 14.6 µM (inactive)
- GI50 (CAKI-1): 6.32 µM (inactive)
- GI50 (TK-10): 12 µM (inactive)
- GI50 (SK-MEL-5): 3.5 µM (inactive)
- GI50 (UO-31): 6.03 µM (inactive)
- GI50 (MOLT-4): 735 nM (active)
- GI50 (RPMI-8226): 2.54 µM (inactive)
- GI50 (OVCAR-8): 5.96 µM (inactive)
- GI50 (786-0): 3.94 µM (inactive)
- GI50 (UACC-62): 3.9 µM (inactive)
- GI50 (OVCAR-4): 57 µM (inactive)
- GI50 (K562): 1.09 µM (active)
- GI50 (SF-539): 2.33 µM (inactive)
- GI50 (OVCAR-5): > 26.2 µM (inactive)
- GI50 (Hs-578T): 2.87 µM (inactive)
- GI50 (SNB-75): 4.18 µM (inactive)
- GI50 (MDA-MB-435): 326 nM (active)
- GI50 (T47D): 4.51 µM (inactive)
- GI50 (PC-3): 3.6 µM (inactive)
- GI50 (RXF 393): 1.87 µM (inactive)
- GI50 (CCRF-CEM): 4.34 µM (inactive)
- GI50 (NCI/ADR-RES): 3.49 µM (inactive)
- GI50 (SK-MEL-28): 5.51 µM (inactive)
- GI50 (SF-295): 1.84 µM (inactive)
- GI50 (Malme-3M): 4.99 µM (inactive)
- GI50 (SNB-19): 5.79 µM (inactive)
